Converted amounts (≈) assume the structure as drawn. Residues, ends and D or L forms follow the SMILES beside them.
What was measured:
[1] = Determination of bulk density (1 L measuring cylinder); type: physicochemical
Method: The bulk density in kg/L was determined using a 1 L measuring cylinder, which was filled with the bulk material precisely to the 1000 ml mark, and was measured by weighing the weight of the contents so as to result in the bulk density directly.

Minimum ignition energy = type: physicochemical
Dust content = type: physicochemical; conditions: fraction <63 μm
[2] = Water solubility at room temperature

Row | Structure (SMILES) | bulk density [1] [kg/m^3] | minimum ignition energy (Minimum ignition energy; 100° C.) | minimum ignition energy (Minimum ignition energy; room temperature) | dust content (Dust content) | water solubility [2] [g/L]
1 | CSCCC(N)C(=O)NC(CCSC)C(=O)O (stereo not drawn) [DLLD-Met-Met, DL/LD-methionylmethionine] (H-Met-Met-OH; configuration not given here) | > 600 | above 3 mJ | above 10 mJ | approx. 10% | –
2 | CSCCC(N)C(=O)NC(CCSC)C(=O)O (stereo not drawn) [DDLL-Met-Met, DD/LL-methionylmethionine] (H-Met-Met-OH; configuration not given here) | – | – | – | – | 21.0 (≈ 74.9 mM)
